# Literature values in US20220378840A1, “COMPOSITIONS, KITS AND METHODS FOR STORAGE OF BLOOD PRODUCTS AND METHODS OF USE THEREOF” (Rutgers, The State University of New Jersey, priority 2019, published 2022).
# Columns and labels:
# cells = settings: 6% concentration HES
# hemorrhagic shock = settings: 6% concentration HES
# RBCs [1] = settings: 6% concentration L-carnitine
# RBCs [2] = settings: prolonged incubation in 3% L-carnitine
Molecule,cell survival during freezing and thawing (cells),oxidative stress and inflammatory response in hemorrhagic shock (hemorrhagic shock),recovery of RBCs (RBCs [1]),toxicity on prolonged incubation (RBCs [2])
Hydroxyethyl starch [HES],improves cell survival,reduces oxidative stress and inflammatory response,,
C[N+](C)(C)C[C@H](O)CC(=O)[O-] [L-carnitine],,,80%,non-toxic
